Reference: patent US11591337B2, “Substituted [1,2,4]triazolo[4,3-a]pyrazines as modulators of mGlu5 receptors” (Recordati Industria Chimica e Farmaceutica S.p.A., priority 2018, dated 2023)

Experiments:
[1] = molecular target: T1, mGlu5 receptor (Homo sapiens, UniProt P41594); assay: Radioligand binding assay ([3H]MPEP) at cloned mGluR5; details: CHO T-REx h-mGluR5 cells, 4 nM [3H]MPEP, 60 min at 25° C.; read-out: affinity (Ki) for mGlu5 receptor
T1 construct: Human mGluR5 open reading frame (ORF), comprehensive of the stop codon, were cloned into the pcDNA4/TO/myc-His™ A vector; expressed in transfected cells
Excerpt: Cell lines stably transfected were generated using inducible expression vectors encoding human mGlu5 receptor using the Tetracycline-Regulated Expression system (T-REx™ system, Invitrogen, Life Technologies). Human mGluR5 open reading frame (ORF), comprehensive of the stop codon, were cloned into the pcDNA4/TO/myc-His™ A vector, carrying the TetO2. The insertion site was HindIII-PstI for mGluR5 receptors. The obtained constructs were then transfected into the T-REx CHO™ cell line using the FuGENE protocol (Roche); the CHO T-REx™ cell line stably expresses the Tet repressor (from the pcDNA6/TR plasmid) under the selection of blasticidin, 10 μg/ml. […] The expression of h-mGluR5 receptors was de-repressed with 1 μg/ml tetracycline for 18 h before binding experimentation, while the expression of h-mGluR5 receptors was derepressed respectively with 3 ng/ml and 10 ng/ml tetracycline for 18 h before calcium fluorescence experimentation.
Affinity at transmembrane glutamate metabotropic mGluR5 receptor subtypes was evaluated according to the methods of Anderson (Anderson et al., J Pharmacol. Exp. Ther., (2002), Vol. 303(3), pp. 1044-51), with some modifications. […] Non-specific binding was determined in the presence of 10 μM MPEP. […] The filters were then washed with cold buffer and the radioactivity retained on the filters was counted by liquid scintillation spectrometry (Betaplate 1204 BS-Wallac). […]

[2] = molecular target: T1, mGlu5 receptor; assay: Functional activity at mGlu5 receptor as calcium fluorescence measurements; type: cell-based
Excerpt: Cell lines stably transfected were generated using inducible expression vectors encoding human mGlu5 receptor using the Tetracycline-Regulated Expression system (T-REx™ system, Invitrogen, Life Technologies). Human mGluR5 open reading frame (ORF), comprehensive of the stop codon, were cloned into the pcDNA4/TO/myc-His™ A vector, carrying the TetO2. The insertion site was HindIII-PstI for mGluR5 receptors. The obtained constructs were then transfected into the T-REx CHO™ cell line using the FuGENE protocol (Roche); the CHO T-REx™ cell line stably expresses the Tet repressor (from the pcDNA6/TR plasmid) under the selection of blasticidin, 10 μg/ml. Stable clones were obtained selecting with zeocin 1 mg/ml and maintaining in ULTRA CHO medium (LONZA) supplemented with dialyzed FBS, zeocin, blasticidin, at 37° C., in an atmosphere of 5% CO2. The expression of h-mGluR5 receptors was de-repressed with 1 μg/ml tetracycline for 18 h before binding experimentation, while the expression of h-mGluR5 receptors was derepressed respectively with 3 ng/ml and 10 ng/ml tetracycline for 18 h before calcium fluorescence experimentation.
Cells were seeded into black-walled, clear-bottom, 96-well plates at a density of 80000 cell/well, in RPMI (without Phenol Red, without L-glutamine; Gibco LifeTechnologies, CA) supplemented with 10% dialyzed FBS. Following 18-h incubation with tetracycline, the cells were loaded with 2 mM Ca^2+- sensitive fluorescent dye Fluo-4/AM (Molecular Probes) in Hanks' balanced saline solution (HBSS, Gibco LifeTechnologies, CA) with […] Hepes (Sigma) and 2.5 mM probenecid (Sigma), for 1 h at 37° C. The cells were washed three times with HBSS to remove extracellular dye. Fluorescence signals were measured by using the fluorescence microplate reader Flexstation III (Molecular Devices) at sampling intervals of 1.5 s for 60 s.
The antagonist potency was determined using the EC80 of the quisqualate used as agonist and the potentiation of mGlu5 activation was determined using the EC20 of the agonist (quisqualate or glutamate). […]

T1 sequence (P41594 21-1212): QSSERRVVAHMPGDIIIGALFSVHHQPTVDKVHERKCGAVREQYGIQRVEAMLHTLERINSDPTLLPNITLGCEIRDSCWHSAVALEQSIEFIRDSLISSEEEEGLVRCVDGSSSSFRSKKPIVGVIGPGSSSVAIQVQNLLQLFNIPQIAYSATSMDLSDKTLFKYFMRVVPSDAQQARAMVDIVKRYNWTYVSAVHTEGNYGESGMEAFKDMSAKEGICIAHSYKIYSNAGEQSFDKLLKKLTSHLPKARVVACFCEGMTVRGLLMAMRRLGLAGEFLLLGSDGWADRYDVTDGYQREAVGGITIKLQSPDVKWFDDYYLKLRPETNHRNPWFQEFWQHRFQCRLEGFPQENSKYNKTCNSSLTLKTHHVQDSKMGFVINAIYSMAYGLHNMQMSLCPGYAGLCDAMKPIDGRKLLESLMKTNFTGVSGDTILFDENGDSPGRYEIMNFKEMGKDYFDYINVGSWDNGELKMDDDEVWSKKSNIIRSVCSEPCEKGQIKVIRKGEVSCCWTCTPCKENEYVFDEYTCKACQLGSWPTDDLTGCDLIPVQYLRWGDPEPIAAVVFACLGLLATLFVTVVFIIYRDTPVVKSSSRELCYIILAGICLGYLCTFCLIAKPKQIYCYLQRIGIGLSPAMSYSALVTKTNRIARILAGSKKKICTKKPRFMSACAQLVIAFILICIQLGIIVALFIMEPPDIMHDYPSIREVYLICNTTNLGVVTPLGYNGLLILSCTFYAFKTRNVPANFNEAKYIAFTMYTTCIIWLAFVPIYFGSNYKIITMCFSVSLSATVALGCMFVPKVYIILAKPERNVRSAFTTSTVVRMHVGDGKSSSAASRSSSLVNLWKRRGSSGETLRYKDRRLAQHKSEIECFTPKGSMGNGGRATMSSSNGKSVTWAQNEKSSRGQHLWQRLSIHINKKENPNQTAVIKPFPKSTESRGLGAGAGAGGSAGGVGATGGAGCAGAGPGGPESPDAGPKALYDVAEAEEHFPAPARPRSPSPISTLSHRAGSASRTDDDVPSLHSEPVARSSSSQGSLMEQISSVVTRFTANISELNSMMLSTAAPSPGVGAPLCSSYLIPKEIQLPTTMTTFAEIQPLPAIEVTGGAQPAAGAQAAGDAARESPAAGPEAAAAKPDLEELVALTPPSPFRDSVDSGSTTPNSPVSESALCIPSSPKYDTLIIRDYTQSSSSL

| SMILES | Ki [1] [nM] | EC50 ([2]; potentiation of mGlu5 activation at EC20 of the agonist (quisqualate or glutamate), read-out: positive allosteric activity EC50) [nM] | type of allosteric modulation [2] | IC50 ([2]; antagonist potency at EC80 of quisqualate, read-out: negative allosteric modulation activity IC50) [nM] |
| --- | --- | --- | --- | --- |
| O=C(c1cccc(Cl)c1)N1CCn2c(C#Cc3cccc(Cl)c3)nnc2C1 [Example 8, (3-Chlorophenyl)-[3-[2-(3-chlorophenyl)ethynyl]-6,8-dihydro-5H-[1,2,4]triazolo[4,3-a]pyrazin-7-yl]methanone] | 33.8 | 294 |  |  |
| CCN(C)C(=O)N1CCn2c(C#Cc3cccc(C)c3)nnc2C1 [Example 40, N-Ethyl-N-methyl-3-[2-(m-tolyl)ethynyl]-6,8-dihydro-5H-[1,2,4]triazolo[4,3-a]pyrazine-7-carboxamide] | 32 |  | negative allosteric modulator | 60.9 |
